The subject of one data set is DGAT2 mRNA. Nature of the data set: Antisense inhibition of DGAT2 in A10 cells at 75 nM (Example 22, Table 81). The format is cell-based, rat. The following applies: approximately 24 hours. As for the experimental part:
Short antisense compounds targeted to a DGAT2 nucleic acid were tested for their effects on DGAT2 mRNA in vitro. Cultured A10 cells in a 96-well plate were treated with 75 nM of short antisense compound. After a treatment period of approximately 24 hours, RNA was isolated from the cells and DGAT2 mRNA levels were measured by quantitative real-time PCR, as described herein. DGAT2 mRNA levels were adjusted according to total RNA content as measured by RIBOGREEN®. […]

The subject of the next data set is rat DGAT2 mRNA. Description: Dose-dependent inhibition of DGAT2 in A10 cells, 0.62-150 nM (Example 22, Table 83). The format is cell-based. Here is the method:
Additional short antisense compounds targeted to DGAT2 mRNA were tested in vitro. A10 cells were prepared as described above and treated with 0.62, 1.85, 5.56, 16.67, 50.0, and 150.0 nM short antisense compounds to determine if DGAT2 inhibition occurs in a dose-dependent manner. DGAT2 mRNA was measured using quantitative real-time PCR, as described herein. […] Results are presented as percent inhibition of rat DGAT2, relative to untreated control cells.

The next data set relates to mouse SGLT2 mRNA. Nature of the data set: Mouse SGLT2 mRNA levels in kidney, additional 1-10-1 and 2-8-2 MOE gapmers, Balb/c mice (Example 15, Table 68). The format is in vivo. As for the experimental part: 1-10-1 and 2-8-2 MOE gapmer short antisense compounds were designed to target different regions of the mouse SGLT2 RNA but have complementarity across species. […] All cytidine residues are 5-methylcytidines.
The short antisense compounds were analyzed for their effect on mouse SGLT2 mRNA levels in vivo. Data was taken from three experiments in which male 6-week old Balb/c mice were dosed twice per week for three weeks with 0.5, 0.1, or 0.02 umol/kg of either a 1-10-1 or 2-8-2 MOE gapmer given by intraperitoneal injection. Mice were sacrificed 48 hours following last administration and evaluated for SGLT2 levels in kidney. Target levels were determined by RT, real-time PCR as described by other examples herein. PCR results were normalized to an internal ISIS control.

Strand notation (5' to 3'): a small letter for the sugar, then the base; units joined by * are phosphorothioate-linked, units joined directly phosphodiester-linked; [ ] holds rarer units or linkages, { } end groups; capitals alone tell only the bases. e = 2'-O-(2-methoxyethyl) (MOE); [5mC] = 5-methylcytosine; d = 2'-deoxy (DNA)

The results in this text go back to US8188059B2, “Compounds and methods for modulating expression of GCGR” (Isis Pharmaceuticals, Inc., priority 2006, dated 2012).

As to “372491 (antisense eA*e[5mC]*eA*dT*dG*dA*dG*dG*dA*dT*dG*dA*d[5mC]*eA*e[5mC]*eT) [compound 372491]”, the “DGAT2 mRNA, % Control” value in the data set with DGAT2 mRNA was determined as 80%.
For the substance “372500 (antisense eG*eT*eG*dT*dG*dT*d[5mC]*dT*dT*d[5mC]*dA*d[5mC]*d[5mC]*eA*eG*e[5mC]) [compound 372500]”, the “DGAT2 mRNA, % Control” value in the data set with DGAT2 mRNA is 16%. The “percent inhibition of rat DGAT2” value came out at 0 with rat DGAT2 mRNA (0.62 nM); 0 in the data set on rat DGAT2 mRNA (1.85 nM); 0 in the data set with rat DGAT2 mRNA (5.56 nM); 18 in the data set with rat DGAT2 mRNA (16.67 nM); 64 with rat DGAT2 mRNA (50 nM); 88 in the data set with rat DGAT2 mRNA (150 nM).
For the substance “372501 (antisense eT*eT*eG*dT*dG*dT*dG*dT*d[5mC]*dT*dT*d[5mC]*dA*e[5mC]*e[5mC]*eA) [compound 372501]”, in the data set with DGAT2 mRNA, the “DGAT2 mRNA, % Control” value is reported as 28%. For the same substance, the “percent inhibition of rat DGAT2” value amounted to 1 in the data set with rat DGAT2 mRNA (0.62 nM); 5 in the data set with rat DGAT2 mRNA (1.85 nM); 10 in the data set on rat DGAT2 mRNA (5.56 nM); 11 with rat DGAT2 mRNA (16.67 nM); 25 in the data set on rat DGAT2 mRNA (50 nM); 68 in the data set with rat DGAT2 mRNA (150 nM).
Turning to “372503 (antisense eG*e[5mC]*eA*dG*dG*dT*dT*dG*dT*dG*dT*dG*dT*e[5mC]*eT*eT) [compound 372503]”, the “DGAT2 mRNA, % Control” value with DGAT2 mRNA is 35%. For the same substance, the “percent inhibition of rat DGAT2” value was found to be 7 in the data set on rat DGAT2 mRNA (0.62 nM); 10 with rat DGAT2 mRNA (1.85 nM); 4 with rat DGAT2 mRNA (5.56 nM); 25 in the data set with rat DGAT2 mRNA (16.67 nM); 54 in the data set on rat DGAT2 mRNA (50 nM); 80 with rat DGAT2 mRNA (150 nM).
Consider “372508 (antisense eA*eG*eT*dT*d[5mC]*d[5mC]*dT*dG*dG*dT*dG*dG*dT*e[5mC]*eA*eG) [compound 372508]”, for which the “DGAT2 mRNA, % Control” value in the data set on DGAT2 mRNA is listed as 35%. Besides, the “percent inhibition of rat DGAT2” value with rat DGAT2 mRNA (0.62 nM) is reported as 0; in the data set on rat DGAT2 mRNA (1.85 nM), 0; with rat DGAT2 mRNA (5.56 nM) it was 6; in the data set with rat DGAT2 mRNA (16.67 nM), 14; with rat DGAT2 mRNA (50 nM), 39; in the data set on rat DGAT2 mRNA (150 nM) it was 71.
As to “372516 (antisense eT*eA*e[5mC]*dA*dG*dA*dA*dG*dG*d[5mC]*dA*d[5mC]*d[5mC]*e[5mC]*eA*eG) [compound 372516]”, in the data set on DGAT2 mRNA, the “DGAT2 mRNA, % Control” value is 27%. For the same substance, the “percent inhibition of rat DGAT2” value in the data set on rat DGAT2 mRNA (0.62 nM) was determined as 1; with rat DGAT2 mRNA (1.85 nM), 10; with rat DGAT2 mRNA (5.56 nM), 0; in the data set on rat DGAT2 mRNA (16.67 nM), 4; in the data set with rat DGAT2 mRNA (50 nM), 35; with rat DGAT2 mRNA (150 nM) it was 81.
On to “372524 (antisense eG*e[5mC]*e[5mC]*dA*dG*dG*d[5mC]*dA*dT*dG*dG*dA*dG*e[5mC]*eT*e[5mC]) [compound 372524]”, for which the “DGAT2 mRNA, % Control” value in the data set on DGAT2 mRNA stood at 21%. Besides, the “percent inhibition of rat DGAT2” value in the data set with rat DGAT2 mRNA (0.62 nM) was 7; in the data set with rat DGAT2 mRNA (1.85 nM) it was 0; in the data set with rat DGAT2 mRNA (5.56 nM) it was 5; with rat DGAT2 mRNA (16.67 nM) it was 30; in the data set with rat DGAT2 mRNA (50 nM) it was 68; with rat DGAT2 mRNA (150 nM) it was 91.
Turning to “372530 (antisense eT*e[5mC]*eG*dG*d[5mC]*d[5mC]*d[5mC]*d[5mC]*dA*dG*dG*dA*dG*e[5mC]*e[5mC]*e[5mC]) [compound 372530]”, the “DGAT2 mRNA, % Control” value with DGAT2 mRNA is listed as 35%. Besides, the “percent inhibition of rat DGAT2” value is on record as 0 in the data set on rat DGAT2 mRNA (0.62 nM); 2 in the data set on rat DGAT2 mRNA (1.85 nM); 0 in the data set with rat DGAT2 mRNA (5.56 nM); 10 with rat DGAT2 mRNA (16.67 nM); 38 with rat DGAT2 mRNA (50 nM); 78 with rat DGAT2 mRNA (150 nM).
As for “372546 (antisense eT*eT*eG*dG*dT*d[5mC]*dT*dT*dG*dT*dG*dA*dT*eT*eG*eT) [compound 372546]”, the “DGAT2 mRNA, % Control” value with DGAT2 mRNA came out at 34%. Moreover, the “percent inhibition of rat DGAT2” value turned out to be 0 in the data set on rat DGAT2 mRNA (0.62 nM); 2 with rat DGAT2 mRNA (1.85 nM); 11 in the data set on rat DGAT2 mRNA (5.56 nM); 4 in the data set on rat DGAT2 mRNA (16.67 nM); 48 with rat DGAT2 mRNA (50 nM); 78 in the data set with rat DGAT2 mRNA (150 nM).
With “372563 (antisense eA*eG*d[5mC]*d[5mC]*dA*dG*dG*dT*dG*dA*d[5mC]*dA*eG*eA) [compound 372563]”, the “DGAT2 mRNA, % Control” value in the data set with DGAT2 mRNA is 48%. The “percent inhibition of rat DGAT2” value with rat DGAT2 mRNA (0.62 nM) was 0; in the data set with rat DGAT2 mRNA (1.85 nM) it was 0; in the data set with rat DGAT2 mRNA (5.56 nM), 0; with rat DGAT2 mRNA (16.67 nM) it was 1; in the data set with rat DGAT2 mRNA (50 nM), 4; in the data set with rat DGAT2 mRNA (150 nM) it was 46.
“372569 (antisense e[5mC]*eA*dT*dG*dA*dG*dG*dA*dT*dG*dA*d[5mC]*eA*e[5mC]) [compound 372569]”: in the data set with DGAT2 mRNA, the “DGAT2 mRNA, % Control” value was found to be 104%.
With “372578 (antisense eT*eG*dT*dG*dT*d[5mC]*dT*dT*d[5mC]*dA*d[5mC]*d[5mC]*eA*eG) [compound 372578]”, the “DGAT2 mRNA, % Control” value in the data set with DGAT2 mRNA amounted to 59%. The “percent inhibition of rat DGAT2” value is on record as 0 in the data set with rat DGAT2 mRNA (0.62 nM); 0 in the data set with rat DGAT2 mRNA (1.85 nM); 0 in the data set on rat DGAT2 mRNA (5.56 nM); 2 in the data set with rat DGAT2 mRNA (16.67 nM); 7 in the data set with rat DGAT2 mRNA (50 nM); 42 in the data set on rat DGAT2 mRNA (150 nM).
In the case of “372580 (antisense eG*eG*dT*dT*dG*dT*dG*dT*dG*dT*d[5mC]*dT*eT*e[5mC]) [compound 372580]”, in the data set on DGAT2 mRNA, the “DGAT2 mRNA, % Control” value is 48%. For the same substance, the “percent inhibition of rat DGAT2” value is reported as 0 in the data set on rat DGAT2 mRNA (0.62 nM); 5 in the data set on rat DGAT2 mRNA (1.85 nM); 5 in the data set on rat DGAT2 mRNA (5.56 nM); 3 in the data set on rat DGAT2 mRNA (16.67 nM); 16 in the data set with rat DGAT2 mRNA (50 nM); 42 in the data set on rat DGAT2 mRNA (150 nM).
With “372594 (antisense eA*e[5mC]*dA*dG*dA*dA*dG*dG*d[5mC]*dA*d[5mC]*d[5mC]*e[5mC]*eA) [compound 372594]”, in the data set on DGAT2 mRNA, the “DGAT2 mRNA, % Control” value came to 77%. For the same substance, the “percent inhibition of rat DGAT2” value is reported as 0 in the data set with rat DGAT2 mRNA (0.62 nM); 0 with rat DGAT2 mRNA (1.85 nM); 0 in the data set on rat DGAT2 mRNA (5.56 nM); 0 in the data set on rat DGAT2 mRNA (16.67 nM); 2 with rat DGAT2 mRNA (50 nM); 15 in the data set with rat DGAT2 mRNA (150 nM).
As for “372624 (antisense eT*eG*dG*dT*d[5mC]*dT*dT*dG*dT*dG*dA*dT*eT*eG) [compound 372624]”, in the data set with DGAT2 mRNA, the “DGAT2 mRNA, % Control” value is listed as 56%. Also, the “percent inhibition of rat DGAT2” value stood at 0 in the data set with rat DGAT2 mRNA (0.62 nM); 0 with rat DGAT2 mRNA (1.85 nM); 0 in the data set with rat DGAT2 mRNA (5.56 nM); 1 with rat DGAT2 mRNA (16.67 nM); 16 in the data set on rat DGAT2 mRNA (50 nM); 38 in the data set with rat DGAT2 mRNA (150 nM).
In the case of “ISIS 388627 (antisense eG*e[5mC]*dA*d[5mC]*dA*d[5mC]*dA*dG*d[5mC]*dT*eG*e[5mC])”, the “% change in SGLT2 expression relative to saline” value with mouse SGLT2 mRNA (0.02 umol/kg i.p. twice per week for three weeks) is listed as −38%; in the data set on mouse SGLT2 mRNA (0.1 umol/kg i.p. twice per week for three weeks), −50%; in the data set on mouse SGLT2 mRNA (0.5 umol/kg i.p. twice per week for three weeks), −65%.
